{"source": "patent US20260151517A1", "about": "“SOMATOSTATIN RECEPTOR-TARGETING RADIOPHARMACEUTICALS AND USES THEREOF” (Nuclidium AG, priority 2024, published 2026)", "key": {"[1]": {"test": "in vivo", "settings": "athymic nude Foxn1^nu, mouse, total radioactivity", "method": "(§2) Unless otherwise specified, the in vivo studies were performed on athymic nude Foxn1^nu 4-6 weeks-old mice. Animals were injected in the shoulder with HEK-SST2 cells (10^7 cells/200 μL) suspended in PBS. The in vivo experiments were performed when tumors reached a volume between 100-500 mm. At the intervention, all mice were between 7 and 11 weeks old.\n(§3) The specificity study was performed parallel to pharmacokinetics studies. For this reason, NODAGA-LM3 was radiolabeled with ^64Cu.\n(§4) The specificity of [^64Cu]Cu-NODAGA-LM3 for SSTR2-expressing tissues was evaluated in HEK-SST2 xenograft mice through a blocking study. The mice were administered with 0.15 MBq of [^64Cu]Cu-NODAGA-LM3 co-injected with a 2000-fold excess of DOTA-LM3 as a blocking agent. The mice were sacrificed 4 hours post-injection, and the organs were collected. weighed, and counted in a gamma counter."}, "[2]": {"test": "in vivo", "set-up": "species or system mice", "settings": "athymic nude Foxn1^nu, mouse, iv, 13 MBq, total radioactivity", "experimental": "Dynamic PET scans were acquired for 1 hour post-injection of the investigated radiopharmaceutical. The mice were euthanized using carbon dioxide at 4 hours post-injection, the bladder was mechanically emptied, and static PET scans were acquired for 30 min. PET images were obtained using the β-CUBE PET scanner system (MOLECUBES) and were decay corrected and reconstructed with the VivoQuant software version 4.0. Tomograms and helical CT scans of the whole mouse were first acquired using a NanoSPECT/CTTM scanner (Bioscan Inc.). CT images were reconstructed using CTReco (version r1.146), resulting in a pixel size of 0.2 mm. InVivoScope (version 1.43, Bioscan Inc.) software was used to generate the maximum intensity projection (MIP) of the co-registered PET/CT images presented in FIG. 10."}, "[3]": {"test": "Biodistribution studies", "assay_type": "in vivo, mice", "settings": "athymic nude Foxn1^nu, mouse, iv, 1 MBq, total radioactivity", "experimental": "(§1) The dose of the administered radiopharmaceutical was 1 MBq ([…]) diluted to 100 μL with saline solution. The mice were euthanized at 4 hours post-injection, and the organs of interest were collected, rinsed, blotted, weighed, and analyzed in a gamma counter. The results were expressed as the percentage of injected activity per gram of tissue (% IA/g) and reported as mean±standard deviation in Table 32."}, "[4]": {"test_system": "HEK-SST2 xenografted mice", "test": "Biodistribution studies", "assay_type": "in vivo", "settings": "4 hours post-injection, 1 MBq i.v.", "experimental": "as §1"}, "[5]": {"test_system": "HEK-SST2 xenograft mice", "settings": "athymic nude Foxn1^nu, mouse, in vivo, 4 h", "method": "as §2, §3, §4"}}, "note": "Where two headings read alike, the source gives them in different places. *1 amine or outer side, *2 acyl side, *3 side chain or, on linkers, in order; H or OH if unused. Where a SMILES comes first, the peptide text is derived from it. Bridges are numbered along the chain shown (N, C = ends). [ ]: non-standard residue; d: D form. The star is where a group is joined. NODAGA = O=C(O)CN1CCN(CC(=O)O)CCN(C(CCC(=O)*)C(=O)O)CC1; X1 = NC(=O)Nc1ccc(CC(N[*:1])C(=O)[*:2])cc1; Phe(4-Cl) = N[CH](Cc1ccc(Cl)cc1)C(=O)O"}
{"smiles": "CC(O)C1NC(=O)C(CCCCN)NC(=O)C(Cc2ccc(NC(N)=O)cc2)NC(=O)C(Cc2ccc(O)cc2)NC(=O)C(NC(=O)C(Cc2ccc(Cl)cc2)NC(=O)CCC(C(=O)O)N2CCN(CC(=O)O)CCN(CC(=O)O)CC2)CSSCC(C(=O)NC(Cc2ccc(O)cc2)C(N)=O)NC1=O", "note": "(stereo not shown) [[^61Cu]Cu-NODAGA-LM3, metal not drawn] ({NODAGA}-[Phe(4-Cl)]CY[X1]KTCY-NH2; disulfide 2-7; configuration not given here)", "values": [{"measurement": "tissue uptake at 4 h", "setting": "[1]; 0.15 MBq, Uptake Bone", "value": "0.39 ± 0.07", "unit": "%ID/g"}, {"measurement": "tissue uptake at 4 h", "setting": "[1]; 0.15 MBq, Uptake Pancreas", "value": "0.55 ± 0.1", "unit": "%ID/g"}, {"measurement": "tissue uptake at 4 h", "setting": "[1]; 0.15 MBq, Uptake Stomach", "value": "1.31 ± 0.55", "unit": "%ID/g"}, {"measurement": "tissue uptake at 4 h", "setting": "[1]; 0.15 MBq, Uptake Tumor", "value": "37.9 ± 3.43", "unit": "%ID/g"}, {"measurement": "tissue uptake at 4 h", "setting": "[1]; Uptake Blood", "value": "0.11 ± 0.05", "unit": "%ID/g"}, {"measurement": "tissue uptake at 4 h", "setting": "[1]; Uptake Bone", "value": "0.01 ± 0.01", "unit": "%ID/g"}, {"measurement": "tissue uptake at 4 h", "setting": "[1]; Uptake Heart", "value": "0.14 ± 0.07", "unit": "%ID/g"}, {"measurement": "tissue uptake at 4 h", "setting": "[1]; Uptake Intestine", "value": "0.46 ± 0.01", "unit": "%ID/g"}, {"measurement": "tissue uptake at 4 h", "setting": "[1]; Uptake Kidney", "value": "3.52 ± 0.93", "unit": "%ID/g"}, {"measurement": "tissue uptake at 4 h", "setting": "[1]; Uptake Liver", "value": "0.96 ± 0.14", "unit": "%ID/g"}, {"measurement": "tissue uptake at 4 h", "setting": "[1]; Uptake Lung", "value": "0.67 ± 0.25", "unit": "%ID/g"}, {"measurement": "tissue uptake at 4 h", "setting": "[1]; Uptake Muscle", "value": "0.03 ± 0.01", "unit": "%ID/g"}, {"measurement": "tissue uptake at 4 h", "setting": "[1]; Uptake Pancreas", "value": "0.12 ± 0.03", "unit": "%ID/g"}, {"measurement": "tissue uptake at 4 h", "setting": "[1]; Uptake Spleen", "value": "0.21 ± 0.06", "unit": "%ID/g"}, {"measurement": "tissue uptake at 4 h", "setting": "[1]; Uptake Stomach", "value": "0.43 ± 0.14", "unit": "%ID/g"}, {"measurement": "tissue uptake at 4 h", "setting": "[1]; Uptake Tumor", "value": "0.52 ± 0.18", "unit": "%ID/g"}, {"measurement": "tissue uptake at 4 h", "setting": "[1]; female, iv, 0.15 MBq, Uptake Intestine", "value": "0.46 ± 0.04", "unit": "%ID/g"}, {"measurement": "tissue uptake at 4 h", "setting": "[1]; female, iv, 0.15 MBq, Uptake Kidney", "value": "4.41 ± 0.74", "unit": "%ID/g"}, {"measurement": "tissue uptake at 4 h", "setting": "[1]; female, iv, 0.15 MBq, Uptake Lung", "value": "0.6 ± 0.17", "unit": "%ID/g"}, {"measurement": "tissue uptake at 4 h", "setting": "[1]; female, iv, 0.15 MBq, Uptake Spleen", "value": "0.21 ± 0.1", "unit": "%ID/g"}, {"measurement": "tissue to tissue ratio", "setting": "[2]", "value": 4}, {"measurement": "tissue to tissue ratio at 4 h", "setting": "[3]; in vivo, Tumor-to-organ uptake ratio Tumor/Blood", "value": 181}, {"measurement": "tissue to tissue ratio at 4 h", "setting": "[3]; in vivo, Tumor-to-organ uptake ratio Tumor/Liver", "value": 26}, {"measurement": "tissue to tissue ratio at 4 h", "setting": "[3]; in vivo, Tumor-to-organ uptake ratio Tumor/Muscles", "value": 185}, {"measurement": "tissue to tissue ratio at 4 h", "setting": "[3]; in vivo, Tumor-to-organ uptake ratio Tumor/Pituitary", "value": 5.3}, {"measurement": "tissue uptake at 4 h", "setting": "[3]; in vivo, Uptake [% IA/g] Adrenal", "value": "0.61 ± 0.18", "unit": "%ID/g"}, {"measurement": "tissue uptake at 4 h", "setting": "[3]; in vivo, Uptake [% IA/g] Blood", "value": "0.11 ± 0.01", "unit": "%ID/g"}, {"measurement": "tissue uptake at 4 h", "setting": "[3]; in vivo, Uptake [% IA/g] Bone", "value": "0.42 ± 0.12", "unit": "%ID/g"}, {"measurement": "tissue uptake at 4 h", "setting": "[3]; in vivo, Uptake [% IA/g] HEK-STT2-tumor", "value": "19 ± 2.1", "unit": "%ID/g"}, {"measurement": "tissue uptake at 4 h", "setting": "[3]; in vivo, Uptake [% IA/g] Heart", "value": "0.17 ± 0.02", "unit": "%ID/g"}, {"measurement": "tissue uptake at 4 h", "setting": "[3]; in vivo, Uptake [% IA/g] Intestine", "value": "0.58 ± 0.12", "unit": "%ID/g"}, {"measurement": "tissue uptake at 4 h", "setting": "[3]; in vivo, Uptake [% IA/g] Liver", "value": "0.73 ± 0.06", "unit": "%ID/g"}, {"measurement": "tissue uptake at 4 h", "setting": "[3]; in vivo, Uptake [% IA/g] Lung", "value": "0.42 ± 0.05", "unit": "%ID/g"}, {"measurement": "tissue uptake at 4 h", "setting": "[3]; in vivo, Uptake [% IA/g] Muscle", "value": "0.1 ± 0.02", "unit": "%ID/g"}, {"measurement": "tissue uptake at 4 h", "setting": "[3]; in vivo, Uptake [% IA/g] Pancreas", "value": "0.44 ± 0.24", "unit": "%ID/g"}, {"measurement": "tissue uptake at 4 h", "setting": "[3]; in vivo, Uptake [% IA/g] Pituitary", "value": "3.64 ± 0.31", "unit": "%ID/g"}, {"measurement": "tissue uptake at 4 h", "setting": "[3]; in vivo, Uptake [% IA/g] Spleen", "value": "0.18 ± 0.02", "unit": "%ID/g"}, {"measurement": "tissue uptake at 4 h", "setting": "[3]; in vivo, Uptake [% IA/g] Stomach", "value": "0.79 ± 0.13", "unit": "%ID/g"}, {"measurement": "tissue uptake at 4 h", "setting": "[3]; kidneys, 4 hours post-injection, 1 MBq i.v., read-out: Uptake [% IA/g] Kidneys", "value": "3.87 ± 0.51", "unit": "%ID/g"}, {"measurement": "tissue to tissue ratio at 4 h", "setting": "[3]; tumor / all organs except kidneys, 4 hours post-injection, read-out: tumor-to-organ uptake ratio, all the organs except for kidneys", "value": "> 5"}, {"measurement": "tissue to tissue ratio at 4 h", "setting": "[3]; tumor/kidney, 4 hours post-injection, read-out: Tumor-to-organ uptake ratio Tumor/Kidney", "value": 4.9}, {"measurement": "Uptake [% IA/g] Kidneys", "setting": "[4]", "value": "3.87±0.51", "unit": "% IA/g"}, {"measurement": "Uptake Blood", "setting": "[5]", "value": "0.10 ± 0.02", "unit": "% IA/g"}, {"measurement": "Uptake Heart", "setting": "[5]", "value": "0.20 ± 0.01", "unit": "% IA/g"}, {"measurement": "Uptake Liver", "setting": "[5]", "value": "0.90 ± 0.20", "unit": "% IA/g"}, {"measurement": "Uptake Muscle", "setting": "[5]", "value": "0.02 ± 0.01", "unit": "% IA/g"}]}
